Where two headings read alike, the source gives them in different places.
Assays:
[1] = test system: 80S14 (p21-deficient) cells; test: Determination of selectivity of compounds for p21-/- cells: IC50 in 80S14 cells (SRB); format: cell-based, human; conditions: SRB, read-out: IC50 for 80S14
Description: • 1. 80S14 (p21-deficient) cells were cultured in RPMI 1640 medium (Gibco/Invitrogen Life technologies) supplemented with 10% fetal bovine serum (FBS, Gibco) and 10 μg/ml gentamycin (Gibco). Cells were maintained at 37° C. under 7% CO2. • 2. Cells were plated at 6×10^4/ml (0.2 ml/well; 12,000 cells/well) in 96-well microtiter plates (Falcon or Corning/Costar) and incubated at 37° C. overnight (18-24 hours). • 3. 2-5 μl of the test agent-[200 μg/ml stock in 20% DMSO/20 mM HEPES, pH 7.5 (Gibco)] was added to each well to achieve a final concentration of 2-5 μg/ml. Cells were incubated with the test compounds for 5 days at 37° C. • 4. Surviving cells were fixed with 50 μl 50% trichloroacetic acid (Sigma; 10% final concentration) for 1 hour at 4° C. • 5. Plates were rinsed twice with water (0.3 ml per wash using MRD8 robot), and allowed to dry. • 6. Sulforhodamine B (SRB) (Sigma; 0.4% in 1% acetic acid, 50 μl per well; MRD8 robot) was added and plates kept at room temperature for 10 minutes. • 7. Excess dye was removed by washing with 1% acetic acid (3 times, 0.3 ml per wash; MRD8 robot) and allowed to dry. • 8. The dye was solubilized in Tris base (Sigma; 10 mM, 150 μl per well). Plates were kept at room temperature for 30 minutes to allow the dye to diffuse. • 9. Absorbance was measured at 540 nm. • 10. The percentage of cells surviving drug treatment relative to control wells (no drug) was determined. • 11. The difference in % cell survival between the two cell lines was calculated. • 12. Compounds producing a difference score of >50 were considered to be selective for the p21-deficient cells and were evaluated further. Determination of Selectivity of Compounds for p21−/− Cells: • 1. 80S14 cells were cultured as described above. • 2. Cells were seeded in 96-well microtiter plates at 12,000 cells/well (either 0.15 ml/well of 8×10^4 cells/ml suspension, or 0.2 ml/well of 6×10^4 cells/ml suspension). Plates were incubated at 37° C. overnight (18-24 hours). • 3. Serial dilutions of the test agent were added to each well. Dilutions were prepared either in 40% DMSO/20% methanol/20 mM HEPES, pH 7.5 (Gibco) or directly in growth medium. One of two dose ranges were used: 5 pM to 50 μM or 170 pg/ml to 10 μg/ml. Cells were incubated with the test compounds for 5 days at 37° C. • 4. Surviving cells were fixed with 50 μl 50% trichloroacetic acid (Sigma; 10% final concentration) for 1 hour at 4° C. • 5. Plates were rinsed extensively in water, and allowed to dry. • 6. Sulforhodamine B (Sigma; 0.4% in 1% acetic acid, 70 μl per well) was added and plates kept at room temperature for 10 minutes. • 7. Excess dye was removed by washing 5 times with 1% acetic acid and plates were allowed to dry. • 8. The dye was solubilized in Tris base (Sigma; 10 mM, 150 μl per well). Plates were placed on a titer plate shaker (Lab Line Instruments) for 5 minutes to allow the dye to diffuse. • 9. Absorbance was measured at 560 nm.
10. The drug concentration which inhibits cell proliferation by 50% relative to untreated controls (IC50) was determined from cytotoxicity curves.

LoVo Colon cell line = test: Cytotoxicity assay using LoVo colon cell line (SRB, IC50); format: cell-based; conditions: Cellular activity in LoVo cell; 4 days incubation, SRB assay; read-out: Inhibition of LoVo
Description: Cytotoxicity Assay Using LoVo Colon Cell Line: • 1. LoVo Colon cell lines was cultured in RPMI 1640 medium (Gibco/Invitrogen Life Sciences) supplemented with 10% fetal bovine serum (FBS, Gibco) and 50 μg/ml gentamicin (Gibco). Cells were maintained at 37° C. under 7% CO2. • 2. Cells were seeded in 96-well microtiter plates (Corning/Costar) in a volume of 0.15 ml of growth medium (4000 cells/well). Plates were incubated at 37° C. overnight (18-24 hours). • 3. Serial dilutions of the test agent were added to each well. Dilutions were prepared in growth medium. One of two dose ranges was used: 5 pM to 20 μM or […] to 10 μg/ml. Cells were incubated with the test compounds for 4 days at 37° C. • 4. Surviving cells were processed using the SRB asay, as described above.
5. The drug concentration that inhibits cell proliferation by 50% relative to untreated controls (IC50) was determined from cytotoxicity curves using the LSW Toolbox graphing application.

[2] = Cellular activity in 80S14 (p21-deficient) cells, class symbols

Row | Compound | melting point [°C] | other results
1 | CCCCNC(=O)Nc1cccc(-c2ccnc3c(C(=O)c4cccs4)cnn23)c1 [Example 6, N-butyl-N′-{3-[3-(thien-2-ylcarbonyl)pyrazolo [1,5-a]pyrimidin-7-yl]phenyl}urea] | 158 to 160 | 
2 | O=C(Nc1cccc(-c2ccnc3c(C(=O)c4cccs4)cnn23)c1)OCC(Cl)(Cl)Cl [Example 12, 2,2,2-trichloroethyl 3-[3-(thien-2-ylcarbonyl)pyrazolo[1,5-a]pyrimidin-7-yl]phenylcarbamate] | 197 to 200 | IC50 ([1]; Homo sapiens, 120 h, 80S14 (p21-deficient) cells, 5 days at 37° C.): < 1000 nM
3 | O=C(c1ccco1)c1cnn2c(-c3cccc(-n4cccc4)c3)ccnc12 [Example 186, 2-Furanyl[7-[3-(1H-pyrrol-1-yl)phenyl]pyrazolo[1,5-a]pyrimidin-3-yl]-methanone] | 204 to 206 | 
4 | O=C(Nc1cccc(-c2ccnc3c(C(=O)c4cccs4)cnn23)c1)c1ccncc1 [Example 201, N-{3-[3-(2-Thienylcarbonyl)pyrazolo[1,5-a]pyrimidin-7-yl]phenyl}isonicotinamide] | 212 to 215 | 
5 | O=C(Nc1cccc(-c2ccnc3c(C(=O)c4cccs4)cnn23)c1)c1ccccc1F [Example 254, 2-Fluoro-N-{3-[3-(thien-2-ylcarbonyl)pyrazolo[1,5-a]pyrimidin-7-yl]phenyl}benzamide] | 190 to 191 | 
6 | O=C(c1cccs1)c1cnn2c(-c3cccc(NCc4ccco4)c3)ccnc12 [Example 263, (7-{3-[(2-Furylmethyl)amino]phenyl}pyrazolo[1,5-a]pyrimidin-3-yl)(thien-2-yl)methanone] | 124 to 128 | 
7 | O=C(c1cccs1)c1cnn2c(Cl)ccnc12 [Example 284, (7-Chloropyrazolo[1,5-a]pyrimidin-3-yl)(thien-2-yl)methanone] | 148 to 150 | 
8 | COc1ccccc1/C=C/CNc1cccc(-c2ccnc3c(C(=O)c4cccs4)cnn23)c1 [Example 288, [7-(3-{[(2E)-3-(2-Methoxyphenyl)prop-2-enyl]amino}phenyl)pyrazolo[1,5-a]pyrimidin-3-yl](thien-2-yl)methanone] | 128 to 131 | 
9 | CC(C)NC(=N)Nc1cccc(-c2ccnc3c(C(=O)c4cccs4)cnn23)c1 [Example 301, N-Isopropyl-N′-{3-[3-(thien-2-ylcarbonyl)pyrazolo[1,5-a]pyrimidin-7-yl]phenyl}guanidine] | > 200 | 
10 | CC(C)NC(=NC#N)Nc1cccc(-c2ccnc3c(C(=O)c4cccs4)cnn23)c1 [Example 304, N″-Cyano-N-isopropyl-N′-{3-[3-(thien-2-ylcarbonyl)pyrazolo[1,5-a]pyrimidin-7-yl]phenyl}guanidine] | 240 to 241 | 
11 | O=C(Nc1cccc(-c2ccnc3c(C(=O)c4cccs4)cnn23)c1)OCCCN1CCS(=O)(=O)CC1 [Example 309, 3-(1,1-Dioxidothiomorpholin-4-yl)propyl 3-[3-(thien-2-ylcarbonyl)pyrazolo[1,5-a]pyrimidin-7-yl]phenylcarbamate] | 148 to 159 | 
12 | CCC(C)C(C)CNc1cccc(-c2ccnc3c(C(=O)c4cccs4)cnn23)c1 (stereo not shown) [Example 318] | 84 to 86 | 
13 | C/C=C(\C)CNc1cccc(-c2ccnc3c(C(=O)c4cccs4)cnn23)c1 [Example 319] | 118 to 120 | 
14 | CC/C=C/CNc1cccc(-c2ccnc3c(C(=O)c4cccs4)cnn23)c1 [Example 320] | 72 to 75 | 
15 | C=C(C)CNc1cccc(-c2ccnc3c(C(=O)c4cccs4)cnn23)c1 [Example 322] | 104 to 106 | 
16 | C=C(CC)CNc1cccc(-c2ccnc3c(C(=O)c4cccs4)cnn23)c1 [Example 323] | 79 to 82 | 
17 | O=C(O)c1ccccc1C(=O)Nc1cccc(-c2ccnc3c(C(=O)c4cccs4)cnn23)c1 [Example 331, 2-[({3-[3-(Thien-2-ylcarbonyl)pyrazolo[1,5-a]pyrimidin-7-yl]phenyl}amino)carbonyl]benzoic acid] | 215 to 216 | 
18 | CC(C)CC(=O)Nc1cccc(-c2ccnc3c(-c4cccc(N)c4)cnn23)c1 [Example 352, N-{3-[3-(3-Aminophenyl)pyrazolo[1,5-a]pyrimidin-7-yl]phenyl}-3-methylbutanamide] | 173 to 175 | 
19 | (7-{3-[1-(Pyridin-2-ylmethyl)-1H-pyrazol-3-yl]phenyl}pyrazolo[1,5-a]pyrimidin-3-yl)(thien-2-yl)methanone [Example 406] |  | IC50 (LoVo Colon cell line): < 100 nM; IC50 [1, 2]: < 1000 nM
20 | (7-{3-[2-(2-Hydroxyethyl)-2H-tetraazol-5-yl]phenyl}pyrazolo[1,5-a]pyrimidin-3-yl)(thien-2-yl)methanone [Example 402] |  | IC50 (LoVo Colon cell line): 100 to 1000 nM; IC50 [1, 2]: < 1000 nM
21 | (7-{3-[2-(Pyridin-2-ylmethyl)-2H-tetraazol-5-yl]phenyl}pyrazolo[1,5-a]pyriridin-3-yl)(thien-2-yl)methanone [Example 397] |  | IC50 (LoVo Colon cell line): 100 to 1000 nM; IC50 [1, 2]: < 1000 nM
22 | tert-Butyl 4-[2-oxo-2-({3-[3-(thien-2-ylcarbonyl)pyrazolo[1.5-a]pyrimidin-7-yl]phenyl}amino)ethyl]piperidine-1-carboxylate [Example 286] |  | IC50 (LoVo Colon cell line): < 100 nM; IC50 [1, 2]: < 1000 nM
23 | {7-[3-(1-Ethyl-1H-pyrazol-3-yl)phenyl]pyrazolo[1,5-a]pyrimidin-3-yl}(thien-2-yl)methanone [Example 407] |  | IC50 (LoVo Colon cell line): 100 to 1000 nM; IC50 [1, 2]: 1000 to 10000 nM
24 | {7-[3-(1H-Pyrazol-3-yl)phenyl]pyrazolo[1,5-a]pyrimidin-3-yl}(thien-2-yl)methanone [Example 403] |  | IC50 (LoVo Colon cell line): < 100 nM; IC50 [1, 2]: < 1000 nM

Reference: patent US20060063785A1, “Substituted pyrazolo[1,5-a] pyrimidines and process for making same” (priority 2004, published 2006)
